“And” between values parts separate entries of the source, which are not always exact repeats. Equal entries are not always repeated. Structures can show the parent of a compound that is named as a salt. Where two headings read alike, the source gives them in different places.
Tests used:
Candida albicans = assay: Anti-fungal data: Candida albicans; type: cell-based; details: for MFC / MIC80: strain A39; for MIC: strain A39, read-out: Candida albicans (A39) MIC100
Cryptococcus neoformans = assay: Anti-fungal data: Cryptococcus neoformans; type: cell-based; details: for MFC / MIC80: strain H99; for MIC: strain H99, read-out: Cryptococcus neoformans (H99) MIC100
Plasmodium falciparum = assay: Anti-protozoan data: P. falcip. IC50; type: cell-based; details: read-out: P. falcip. IC50
[1] = tested on: Mycobacterium tuberculosis; assay: Compounds tested against Mycobacterium tuberculosis (MIC90); type: cell-based
Aspergillus fumigatus = assay: Anti-fungal data: Aspergillus fumigatus; type: cell-based; details: for MIC80 / MFC: strain DUMC 168.95; for MIC: strain DUMC 168.95, read-out: Aspergillus. Fumigatus (DUMC 168.95) MIC100
[2] = tested on: Trypanosoma brucei rhodesiense; assay: Anti-protozoan data: T.b.r. IC50; type: cell-based; details: read-out: T.b.r. IC50
[3] = tested on: L. donovani axenic amastigotes; assay: In vitro anti-leishmania activity (IC50 vs. L. donovani axenic amastigotes); type: cell-based; details: Leishmania donovani
Trypanosoma cruzi = assay: Anti-protozoan data: T. cruzi IC50; type: cell-based; details: read-out: T. cruzi IC50
DNA = DNA binding ΔTm
[4] = Tables VI(a), VI(c), read-out: Leishmania donovani IC50
[5] = axenic amastigotes, Tables I-V, read-out: IC50 vs. L. donovani

Row | Compound | MFC (Candida albicans) | MIC80 (Candida albicans) | MIC (Candida albicans) | IC50 (Plasmodium falciparum; Tables VI(a), VI(c)) | MIC90 ([1]; read-out: M. tb. MIC90) | IC50 (in vitro) | MIC80 (Aspergillus fumigatus) | MIC (Aspergillus fumigatus) | IC50 ([2]; Tables VI(a), VI(c)) | IC50 [3, 4] | IC50 (Trypanosoma cruzi; Tables VI(a), VI(c)) | DNA binding Δ Tm (DNA; Tables VI(a), VI(c)) | MFC (Aspergillus fumigatus) | IC50 [3, 5] | melting point | other results
1 | CC(C)NC(=N)c1ccc2oc(CCCCc3cc4cc(C(=N)NC(C)C)ccc4o3)cc2c1 [Compound 21, dihydrochloride] | > 100 µg/mL | 10 µg/mL | 10 µg/mL | 9.8 nM | 0.07 µg/mL and 0.13 µM | > 163000 nM | > 100 µg/mL | > 100 µg/mL | 98.8 nM | 12700 ± 2270 nM | 69100 nM | 6.60 | – | – | – | MFC (Cryptococcus neoformans): > 100 µg/mL; MIC80 (Cryptococcus neoformans): 100 µg/mL; MIC (Cryptococcus neoformans): 100 µg/mL
2 | Cl.Cl.N=C(N)c1ccc(OCCCOc2cccc(-c3cc4cc(C(=N)N)ccc4o3)c2)cc1 [Compound 32, 2-(3-(3-(4-Carbamimidoylphenoxy)propoxy)phenyl)benzofuran-5-carboxamidine dihydrochloride] | 10 µg/mL | ≤ 1 µg/mL | 10 µg/mL | 39.7 nM | 0.53 µg/mL and 1 µM | 10400 nM | 10 µg/mL | 100 µg/mL | 907 nM | 3420 ± 900 nM | 16100 nM | 18.7 | > 100 µg/mL | 3420 ± 900 nM | 175 to 178 °C | –
3 | CC(C)NC(=N)c1ccc(OCCCOc2cccc(-c3cc4cc(C(=N)NC(C)C)ccc4o3)c2)cc1.Cl.Cl [Compound 33, 2-(3-(3-(4-(N-Isopropylcarbamimidoyl)phenoxy)propoxy)phenyl)-N-isopropylbenzofuran-5-carboxamidine dihydrochloride] | 10 µg/mL | ≤ 1 µg/mL | 10 µg/mL | 61.3 nM | < 0.62 µg/mL and < 1 µM | 26500 nM | 10 µg/mL | 100 µg/mL | 547 nM | 4490 ± 560 nM | 93600 nM | 14.8 | > 100 µg/mL | 4490 ± 560 nM | 205 to 208 °C | –
4 | CC(C)NC(=N)c1ccc(OCCCCCOc2cccc(-c3cc4cc(C(=N)NC(C)C)ccc4o3)c2)cc1.Cl.Cl [Compound 39, 2-(3-(5-(4-(N-Isopropylcarbamimidoyl)phenoxy)pentyloxy)phenyl)-N-isopropylbenzofuran-5-carboxamidine dihydrochloride] | 100 µg/mL | 10 µg/mL | 100 µg/mL | 123 nM | 1.12 µg/mL and 1.8 µM | 10100 nM | 10 µg/mL | 100 µg/mL | 452 nM | 6860 ± 2100 nM | 26000 nM | 20.8 | > 100 µg/mL | 6860 ± 2100 nM | 225 to 227 °C | –
5 | Cl.Cl.N=C(N)c1ccc(OCCCCOc2ccc(-c3cc4cc(C(=N)N)ccc4o3)cc2)cc1 [Compound 47, 2-(4-(4-(4-Carbamimidoylphenoxy)butoxy)phenyl)benzofuran-5-carboxamidine dihydrochloride] | 10 µg/mL | ≤ 1 µg/mL | 10 µg/mL | 141 nM | 31.8 µg/mL and 59.8 µM | 1300 nM | 10 µg/mL | 100 µg/mL | 164 nM | 610 ± 530 nM | 2490 nM | 11.8 | > 100 µg/mL | 610 ± 530 nM | 310 °C | –
6 | CC(C)NC(=N)c1ccc(OCCCCOc2ccc(-c3cc4cc(C(=N)NC(C)C)ccc4o3)cc2)cc1.Cl.Cl [Compound 48, 2-(4-(4-(4-(N-Isopropylcarbamimidoyl)phenoxy)butoxy)phenyl)-N-isopropylbenzofuran-5-carboxamidine dihydrochloride] | 100 µg/mL | 100 µg/mL | 100 µg/mL | 302 nM | 59.4 µg/mL and 95.6 µM | 6920 nM | 10 µg/mL | 100 µg/mL | 1110 nM | 2970 ± 160 nM | 21000 nM | 13.3 | > 100 µg/mL | – | 305 °C | –
7 | Cl.Cl.c1cc(C2=NCCN2)ccc1OCCCCOc1ccc(-c2cc3cc(C4=NCCN4)ccc3o2)cc1 [Compound 49, 2-(2-(4-(4-(4-(4,5-Dihydro-1H-imidazol-2-yl)phenoxy)butoxy)phenyl)benzofuran-5-yl) -4,5-dihydro-1H-imidazole dihydrochloride] | – | 100 µg/mL | > 100 µg/mL | 64.1 nM | – | 2880 nM | 100 µg/mL | > 100 µg/mL | 374 nM | 9210 ± 2250 nM | 4510 nM | 18.8 | – | 9210 ± 2250 nM | 291 to 293 °C | –
8 | Cl.Cl.N=C(N)c1ccc(OCCCCCOc2ccc(-c3cc4cc(C(=N)N)ccc4o3)cc2)cc1 [Compound 50, 2-(4-(5-(4-Carbamimidoylphenoxy)pentyloxy)phenyl)benzofuran-5-carboxamidine dihydrochloride] | 3.12 µg/mL | 0.39 µg/mL | 0.78 µg/mL | 313 nM | 1.01 µg/mL and 1.84 µM | 4190 nM | 6.25 µg/mL | > 100 µg/mL | 369 nM | – | 4710 nM | 12.7 | – | – | 290 °C (dec.) | MFC (Cryptococcus neoformans): 12.5 µg/mL; MIC80 (Cryptococcus neoformans): 0.39 µg/mL; MIC (Cryptococcus neoformans): 0.78 µg/mL
9 | CC(C)NC(=N)c1ccc(OCCCCCOc2ccc(-c3cc4cc(C(=N)NC(C)C)ccc4o3)cc2)cc1.Cl.Cl [Compound 51, 2-(4-(5-(4-(N-Isopropylcarbamimidoyl)phenoxy)pentyloxy)phenyl)-N-isopropylbenzofuran-5-carboxamidine dihydrochloride] | 100 µg/mL | 100 µg/mL | 100 µg/mL | 193 nM | 0.9 µg/mL and 1.43 µM | 20500 nM | 100 µg/mL | 100 µg/mL | 302 nM | 2080 ± 640 nM | 7680 nM | 18.7 | > 100 µg/mL | – | 260 to 263 °C | –
10 | CC(C)NC(=N)c1ccc(OCCCCCCOc2ccc(-c3cc4cc(C(=N)NC(C)C)ccc4o3)cc2)cc1.Cl.Cl [Compound 54, 2-(4-(6-(4-(N-Isopropylcarbamimidoyl)phenoxy)hexyloxy)phenyl)-N-isopropylbenzofuran-5-carboxamidine dihydrochloride] | – | > 100 µg/mL | > 100 µg/mL | 63.4 nM | 65.8 µg/mL and 102 µM | 850 nM | > 100 µg/mL | > 100 µg/mL | 211 nM | 5400 ± 1460 nM | 1210 nM | – | – | – | 288 to 291 °C | –
11 | Cl.Cl.c1cc(C2=NCCN2)ccc1OCCCCCCOc1ccc(-c2cc3cc(C4=NCCN4)ccc3o2)cc1 [Compound 55, 2-(2-(4-(6-(4-(4,5-Dihydro-1H-imidazol-2-yl)phenoxy)hexyloxy)phenyl)benzofuran-5-yl)-4,5-dihydro-1H-imidazole dihydrochloride] | 10 µg/mL | 10 µg/mL | 10 µg/mL | 116 nM | > 82.7 µg/mL and > 128 µM | 1480 nM | 10 µg/mL | > 100 µg/mL | 360 nM | 3320 ± 970 nM | 1830 nM | 14.4 | – | – | 275 to 277 °C | –
12 | Cl.Cl.c1cc(OCCCCCCOc2ccc(C3=NCCN3)cc2)cc(-c2cc3ccc(C4=NCCN4)cc3o2)c1 [Compound 67, 2-(2-(3-(6-(4-(4,5-Dihydro-1H-imidazol-2-yl)phenoxy)hexyloxy)phenyl)benzofuran-6-yl)-4,5-dihydro-1H-imidazole dihydrochloride] | 1.56 µg/mL | 1.56 µg/mL | 1.56 µg/mL | 41.2 nM | 18 µg/mL and 29.4 µM | 1790 nM | 12.5 µg/mL | 12.5 µg/mL | 681 nM | 43500 ± 690 nM | 3670 nM | – | > 100 µg/mL | 43500 ± 690 nM | 182 to 186 °C | MFC (Cryptococcus neoformans): 1.56 µg/mL; MIC80 (Cryptococcus neoformans): 0.781 µg/mL; MIC (Cryptococcus neoformans): 1.56 µg/mL
13 | N=C(NO)c1ccc(-c2cc3cc(C(=N)NO)ccc3o2)cc1 [Compound 178, 2-(4-(N-Hydroxycarbamimidoyl)phenyl)-N-hydroxybenzofuran-5-carboxamidine] | – | – | – | – | – | > 235000 nM | – | – | – | – | – | – | – | – | – | IC50 (Plasmodium falciparum): 783 nM; MIC90 ([1]; Table VII(b), read-out: M. tb MIC90): > 128 µM; IC50 [2]: 23600 nM; IC50 ([3]; read-out: L. Donovani IC50): > 100000 nM; IC50 (Trypanosoma cruzi): > 235000 nM; DNA binding Δ Tm (DNA): 4.50
14 | N=C(NO)c1ccc(OCCCOc2ccc(-c3cc4cc(C(=N)NO)ccc4o3)cc2)cc1 [Compound 182, 2-(4-(3-(4-(N-Hydroxycarbamimidoyl)phenoxy)propoxy)phenyl)-N-hydroxybenzofuran-5-carboxamidine] | – | – | – | 1400 nM | 0.65 µg/mL and 1.2 µM | 2640 nM | – | – | 1340 nM | 5020 ± 930 nM | 1700 nM | 1.10 | – | – | – | –

From patent US20080114047A1 (priority 2003, published 2008)
